Reference: article PMC10877733, “Discovery and Characterization of VU0542270, the First Selective Inhibitor of Vascular Kir6.1/SUR2B KATP Channels” (Molecular Pharmacology, 2024)

Columns and labels:
Kir2.3 = molecular target: T1, Kir2.3 (Homo sapiens, UniProt P48050); assay: Thallium flux selectivity assay Kir2.3; type: cell-based
T1 construct: expressed in transfected cells
T1 sequence (P48050 1-445): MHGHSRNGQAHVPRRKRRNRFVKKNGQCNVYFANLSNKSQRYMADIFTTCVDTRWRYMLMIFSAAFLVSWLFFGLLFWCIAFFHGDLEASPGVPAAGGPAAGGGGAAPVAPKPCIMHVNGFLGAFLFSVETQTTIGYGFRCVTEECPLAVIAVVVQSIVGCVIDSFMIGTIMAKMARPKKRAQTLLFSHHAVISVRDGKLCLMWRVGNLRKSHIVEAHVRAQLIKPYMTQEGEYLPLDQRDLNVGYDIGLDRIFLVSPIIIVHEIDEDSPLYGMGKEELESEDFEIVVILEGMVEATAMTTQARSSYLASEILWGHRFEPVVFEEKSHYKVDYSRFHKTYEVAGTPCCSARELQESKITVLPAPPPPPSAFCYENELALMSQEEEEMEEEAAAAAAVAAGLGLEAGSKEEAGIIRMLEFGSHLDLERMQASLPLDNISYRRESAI
Procedure: (§1) Quantitative thallium flux assays of Kir6.1/SUR2B activity were performed essentially as described previously for Kir6.2/SUR1 ([Raphemot et al., 2014]; [Kharade et al., 2019]). Stable T-Rex-HEK293-Kir6.1/SUR2B cells or transiently transfected HEK293T cells were plated in polyamine-coated, clear-bottomed, black-walled 384-well plates and were cultured (37°C/5% CO2) overnight in Dulbecco’s modified Eagle’s medium (Gibco, Carlsbad, CA, 11995-065) containing 10% FBS (2 mM Penicillin-Streptomycin). The following day, cells were washed with assay buffer (i.e., Hanks’ balanced salt solution/20 mM HEPES) and loaded for 1 hour with thallium sensor dye Brilliant Thallium (Ion Bioscience, San Marcos, TX) at room temperature. Dye-loaded cells were washed with assay buffer and transferred to a Panoptic Kinetic Imaging Plate Reader (Wavefront Bioscience, Franklin, TN). Control and test compound treatments were for 4 minutes prior to adding 0.5 mM chloride-free thallium stimulus buffer (Ion Bioscience) to initiate thallium flux. […] Selectivity assays against other Kir channels were performed essentially as described previously ([Kharade et al., 2018]; [McClenahan et al., 2022]).

Kir4.2 = molecular target: T2, Kir4.2 (Homo sapiens, UniProt Q99712); assay: Thallium flux selectivity assay Kir4.2; type: cell-based
T2 construct: expressed in transfected cells
T2 sequence (Q99712 1-375): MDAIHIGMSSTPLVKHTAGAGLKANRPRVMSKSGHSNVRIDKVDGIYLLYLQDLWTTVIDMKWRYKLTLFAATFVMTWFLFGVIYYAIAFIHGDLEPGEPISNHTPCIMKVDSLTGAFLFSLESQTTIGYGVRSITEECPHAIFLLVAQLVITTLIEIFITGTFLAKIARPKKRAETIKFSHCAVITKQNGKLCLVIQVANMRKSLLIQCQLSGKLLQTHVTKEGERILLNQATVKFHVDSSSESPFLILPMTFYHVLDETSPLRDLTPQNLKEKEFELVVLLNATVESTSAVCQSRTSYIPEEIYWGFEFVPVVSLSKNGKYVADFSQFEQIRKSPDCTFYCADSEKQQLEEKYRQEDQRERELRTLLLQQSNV
Procedure: as §1

[1] = Rat intravenous pharmacokinetics; type: in vivo; settings: for MRT: iv
Procedure: All animal housing and experimental procedures were approved by the Vanderbilt University Animal Care and Use committee and followed the guidelines set forth by the Guide for the Care and Use of Laboratory Animals. VU0542270 was formulated as a solution in ethanol, PEG400, and saline (1:4:5 v/v, respectively) at a concentration of 1 mg/mL and administered as a single 1-mg/kg IV dose (1 mL/kg) to male Sprague Dawley rats (n = 2; between 366–418 g body weights) via injection into a surgically implanted jugular vein catheter. Blood samples were collected serially from a surgically implanted carotid artery catheter in each animal over multiple postadministration time points (0.033, 0.117, 0.25, 0.5, 1, 2, 4, 7, and 24 hours) into chilled K2EDTA anticoagulant-fortified tubes and immediately placed on wet ice. The blood samples were then centrifuged [1700 relative centrifugal force (rcf), 5 minutes, 4°C] to obtain plasma samples, which were stored at −80°C until analysis by liquid chromatography tandem mass spectrometry (LC-MS/MS). The intravenous pharmacokinetic (PK) data were used for the calculation of relevant intravenous pharmacokinetic parameters [plasma clearance (CLp), volume of steady state, elimination half-life (t1/2), and mean residence time]. In vivo pharmacokinetic parameters of VU0542270 were determined from the observed individual animal time-versus-concentration data using noncompartmental analysis via WinNonlin (WNL; v.5.3, Pharsight Corp., Mountain View, CA.).
Plasma samples from the in-life phases of the studies were thawed at ambient temperature (benchtop), and then aliquots (20 µL per sample) were transferred to a 96-shallow-well (V-bottom) plate. Matrix-matched quality-control samples and a standard curve of VU0542270 (1 mg/mL DMSO stock solution) were prepared in blank rat plasma (K2EDTA treated) or blank brain homogenate via serial dilution and transferred (20 µL each) to the plate along with multiple blank plasma and brain homogenate samples. Acetonitrile (120 µL) containing internal standard (50 nM carbamazepine) was added to each well of the plate to precipitate protein. The plate was then centrifuged (4000 rcf, 5 minutes, ambient temperature), and resulting supernatants (60 µL each) were transferred to a new 96-shallow-well (V-bottom) plate containing an equal volume (60 µL per well) of water (Milli-Q purified). The plate was then sealed in preparation for LC-MS/MS analysis (see below).
Prepared samples were injected (10 µL each) onto an AB Sciex triple quad-4500 mass spectrometer system with an Agilent 1290 Infinity Binary Pump and multisampler. Analytes were separated on a reverse phase column Phenomenex Kinetex C18 (50 × 2.1 mm, 5 µm) that was thermostated at 40°C. High-pressure liquid chromatography mobile phase A was 0.5% formic acid in water (pH unadjusted); mobile phase B was 0.5% formic acid in acetonitrile (pH unadjusted). […] The column was re-equilibrated (1 minute) before the next sample injection. The total run time was 2.55 minutes, and the high-pressure liquid chromatography flow rate was 0.5 ml/min. The source temperature was set at 500°C, and mass spectral analyses were performed using a Turbo-Ion spray source in positive ionization mode (5.0-kV spray voltage) and using multiple-reaction monitoring of transitions specific for both analyte (m/z 335.7–236.7 at 35 eV) and internal standard (m/z 237.0–193.9 at 25 eV). Quantitation of VU0542270 was performed via AB Sciex Analyst software using the raw analyte:IS peak area ratios. The typical detection range for VU0542270 was 0.5 ng/mL to ≥5000 ng/mL, utilizing a quadratic equation regression with 1/x^2 weighting.

- IC50 (Kir2.3): > 30 µM
- IC50 (Kir4.2): > 30 µM
- half-life ([1]; male, Sprague Dawley, plasma, 1 mg/kg, rat IV PK): 38.4 min
- clearance ([1]; male, Sprague Dawley, plasma, rat, 1 mg/kg IV, read-out: CLp): 1.06 L/h/kg
- Vd ([1]; male, Sprague Dawley, plasma, rat, 1 mg/kg IV, read-out: Vss): 0.2 L/kg
- MRT ([1]; male, Sprague Dawley, rat, plasma, 1 mg/kg, 1 mg/kg IV): 11.4 min
- MRT ([1]; male, Sprague Dawley, rat, plasma, 1 mg/kg, rat IV PK): 10.2 min
- t1/2 ([1]; rat, 1 mg/kg IV): 38.4 min
SMILES: Cc1nc(-c2cccs2)sc1CNC(=O)Nc1cccs1 [VU0542270]
